The values below come from patent US10828578B2, “Reversible control of solution solubility using functionalized nanoparticles” (Massachusetts Institute of Technology, priority 2016, dated 2020).

Series [1] in a line: physchem. To be noted: water.
Experimental: The method development involved the study of methanol and acetonitrile as organic modifiers, pH and flow-rate using a Chromolith RP-18e (150 mm×4.6 mm I.D.) column. After comparing the performance the optimum analysis of these compounds was achieved using 50 mM acetate buffer (pH 5.0)-acetonitrile (80:20, v/v) as mobile phase, 1 mL min-1 flow-rate and UV detection at maximum absorbance wavelength of 250 nm.
Series [2] is described as follows: Solubility enhancement in water with glycolic acid functionalized iron oxide nanoparticles (HPLC). To be noted: 2 ml suspension 20 g/L in water + 200 mg glycolic acid IONPs; part converted to 4-aminophenol.
Experimental: The clear solution was analyzed using HPLC in order to determine the final concentration.
Series [3] is described as follows: physchem. Conditions: water, thermodynamic from solid. Here is the method:
A saturated solution of ibuprofen in water was prepared at room temperature. […] An additional 20 mg of ibuprofen was added to 5 mL of the saturated solution. Then, 200 mg of iron oxide nanoparticles that had been functionalized with glycolic acid were added and mixed. Clear samples of solution were then taken from the slurry and analyzed with HPLC.

Series [4] is described as follows: Solubility and metastable zone width of D-mannitol in water and water-ethanol mixtures (Crystal16). The format is physicochemical. To be noted: with an increase in the amount of ethanol (85-15, 75-25, 50-50% wt/wt water-ethanol). An excerpt: According to the results of D-mannitol in water and water-ethanol mixtures, the solubility decreases with an increase in the amount of ethanol in water-ethanol mixtures. In order to know the required amount of functionalized nanoparticles and the operating region for crystallization, the MSZW of D-mannitol is important. For the samples of D-mannitol in the mixtures of 85-15 and 75-25% wt/wt of water-ethanol, the cloud point lies above the saturation temperature of D-mannitol in pure water. This means that, for the mixtures of 85-15 and 75-25% water-ethanol, and the solutes with a concentration of 193 mg/ml at 20° C., spontaneous nucleation will not occur because they will remain in solution. However, these experiments helped to determine the optimum operating supersaturation levels as well as the amount of antisolvent required to crystallize compounds at a given concentration. […]
The solubility and metastable zone width (MSZW) of D-mannitol was measured in pure DI water and DI water-ethanol mixtures at different concentrations by adding a known amount of D-mannitol and 1 mL of solvent or solvent mixtures respectively to a 1.5 mL glass vial. […] The temperature at which the suspension turned into a clear solution was recorded and assumed to be the saturation temperature. […] The temperatures at which the crystals are detected are assumed to be a cloud point. […]

Series [5] is described as follows: NaCl concentration change in water after crystallization with functionalized gold nanoparticles (digital density meter). The series is classed as physicochemical. Conditions: 1.8 nm gold nanoparticles with ethanol group, seeded, 16 hour stirring. From the text:
The antisolvent crystallization of NaCl is the best example of the influence of agglomeration on the final product purity. Though the crystals are crystallized from a mother liquor containing as much as 50% weight antisolvent (on a solvent basis), the uptake of the antisolvent is as low as 30 ppm. In the present study, functionalized nanoparticles were used to crystallize NaCl from a water solution. NaCl is highly soluble in water and slightly soluble in ethanol. In the case of NaCl crystallization, water was used as a solvent and ethanol was used as an antisolvent. NaCl was crystallized in water using 1.8 nm functionalized nanoparticles with an ethanol group at the open terminal. […] After 4 hours the sample was seeded with NaCl crystals and the sample was crystallized only after 16 hour of stirring. The initial and final concentration of NaCl was measured using the Digital Density Meter DMA4500. This instrument is used for accurate measurements of solvent density necessary for the concentration measurements. […] The change in concentration after crystallization measured using the digital density meter was 27 mg.

≈ marks a conversion by molar mass, not a printed value.

What is called solubility (thermodynamic) is solubility found after equilibrating the solid with the medium. The term solubility denotes how much of the substance goes into solution per volume. In the series “physchem [1]” (20 °C, thermodynamic from solid), `O=[N+]([O-])c1ccc(O)cc1` [4-nitrophenol] returned a solubility (thermodynamic) at 24 h of 13 mg/mL (≈ 93.5 mM). In the series “physchem [1]” (25 °C), this molecule registered a solubility at 24 h of 13 mg/mL (≈ 93.5 mM). In series [2], the “concentration in clear solution after IONP addition” value came to 16500 µg/mL. In the case of `CC(C)Cc1ccc(C(C)C(=O)O)cc1` (stereo not drawn) [ibuprofen], the solubility in “physchem [3]” worked out at 0.009 mg/mL (≈ 0.0436 mM). With `OC[C@@H](O)[C@@H](O)[C@H](O)[C@H](O)CO` [D-mannitol], the “solubility of D-mannitol in water-ethanol mixtures” value in series [4] is on record as “decreases”. `[Cl-].[Na+]` [NaCl, Sodium chloride]: the “change in concentration after crystallization” value in series [5] came to 27 mg.
